The source of these data is EP0879051B9, “RATE-CONTROLLED TRANSDERMAL ADMINISTRATION OF RISPERIDONE” (JANSSEN PHARMACEUTICA N.V., priority 1995, dated 1996).

Each structure is given as a SMILES string.

This data set can be described thus: In vitro transdermal permeation of risperidone, two-compartment diffusion cell. The format is in vitro ADME, hairless rats. The protocol:
Experimental Part : In vitro study of the transdermal permeation of risperidone.
An in vitro model using a vertical, two-compartment diffusion cell assembly mounted with freshly excised full thickness abdominal skin of hairless rats (Iffa credo) was used in this study. […] The receptor solution in all experiments consisted of Hanks Balanced Salt Solution (Gibco BRL) with sodium azide). The skin permeation profile was followed for up to 50 h by sampling the receptor solution and assaying the drug concentration by measuring the radioactivity (Ready Safe, Beckmann-Wallac 1410LKB). The ratio of the cumulated quantities detected in the receptor compartment to the skin area (ng/cm^2) were plotted in function of the time and the flux of risperidone through the skin in the presence of various solvents and skin permeation enhancers was deduced from the linear part of the plotted results.

[1] abbreviates: Experiment 2: donor borate buffer pH 10, 0.1 M (900 µl/ml) + ethanol (95%; 100 µl/ml) + risperidone (100 µg/ml).
Setting [2] is: Experiment 4: donor propylene glycol + lauric acid (LA) 5%, risperidone 10 mg/ml.
Setting [3] is: Experiment 4: donor propylene glycol + oleic acid (OA) 5%, risperidone 10 mg/ml.
Where [4] appears, read: donor propylene glycol, 0% enhancer, risperidone 10 mg/ml.

Regarding `Cc1nc2n(c(=O)c1CCN1CCC(c3noc4cc(F)ccc34)CC1)CCCC2` [risperidone, 3-[2-[4-(6-fluoro-1,2-benzisoxazol-3-yl)-1-piperidinyl]ethyl]-6,7,8,9-tetrahydro-2-methyl-4H-pyrido[1,2-a]pyrimidin-4-one], where the note is “Experiment 1: donor borate buffer pH 10, 0.1 M + risperidone at 40mg/ml”, the flux is recorded as 0.181 µg/cm^2.h. For the same compound, under setting [1], the flux was 0.869 µg/cm^2.h and the latency period was 13.9 h. Also, under “Experiment 3: donor propylene glycol + eucalyptus oil 1%, risperidone 10 mg/ml”, the “flux (1%)” value is recorded as 4.54 µg/cm^2.h. Moreover, the “latency period (5%)” value (Experiment 3: donor propylene glycol + eucalyptus oil 5%, risperidone 10 mg/ml) is on record as 6.2 h. The “flux (5%)” value (Experiment 3: donor propylene glycol + eucalyptus oil 5%, risperidone 10 mg/ml, very high flux probably due to skin damage) came out at 126.74 µg/cm^2.h. The “latency period (LA %)” value (Experiment 3: donor propylene glycol + eucalyptus oil (printed 'LA %'), risperidone 10 mg/ml) is 15.2 h. Under setting [2], the “flux (5% LA)” value worked out at 15.39 µg/cm^2.h and the “latency period (5% LA)” value turned out to be 4.3 h. Besides, under setting [3], the “flux (5% OA)” value is listed as 18.9 µg/cm^2.h and the “latency period (5% OA)” value was found to be 17 h. Under setting [4], the “flux (0%)” value was 3.89 µg/cm^2.h and the “latency period (0%)” value amounted to 14.2 h.
